Assay results: patent US20170136008A1, “OXABICYCLOHEPTANES AND OXABICYCLOHEPTENES FOR THE TREATMENT OF OVARIAN CANCER” (priority 2014, published 2017)

Columns and labels:
Assay type in all cases: cell-based, human
[1] = test system: PEO6 ovarian cancer cell line; test: MTT cytotoxicity assay, PEO6; conditions: read-out: IC50, viability of ovarian cancer cell line
Method: (§1) SKOV-3 ovarian cancer cells were purchased from American Type Culture Collection (ATCC) (Manassas, Va.). SKOV-3 cells were cultured in McCoy's 5A medium (ATCC, Manassas, Va.) supplemented with 10% fetal bovine serum and 100 units/mL penicillin G sodium, 100 ug/mL streptomycin sulfate, and 292 μg/ml, L-glutamine (BioWhittaker, Wakersville, Md.). Luciferase-expressing cells were generated by infecting SKOV-3 cells with pCLNCX-luciferase retrovirus (SKOV-3-Luc) as previously reported (Wei, B. R. et al. 2009). Human OVCAR-8 ovarian cancer cells were provided by the National Cancer Institute (part of the NCI-60 collection). The PEO1, PEO4, and PEO6 ovarian cancer cell lines have previously been characterized (Langdon, S. P. et al. 1988) and were kindly provided by Dr. Ian Goldlust (National Center for Advancing Translational Sciences, Shady Grove, Md.). […]
(§2) Cell survival was measured by the 3-(4,5-dimethylthiazol-2-yl)-2,5-diphenyltetrazolium bromide (MTT, Invitrogen) assay. […] Absorbance values were determined at […] on a Spectra Max 250 spectrophotometer (Molecular Devices, Sunnyvale, Calif.). […] Cell viability was analyzed via the MTT assay as described above. […]

[2] = test system: PEO1-STOP (PEO-1s) ovarian cancer cell line; test: MTT cytotoxicity assay, PEO1-STOP; conditions: PEO1-STOP; MTT; read-out: IC50, viability of ovarian cancer cell line
Method: as §1, §2

[3] = test system: PEO4 ovarian cancer cell line; test: MTT cytotoxicity assay, PEO4; conditions: PEO4; MTT; read-out: IC50, viability of ovarian cancer cell line
Method: as §1, §2

[4] = test system: SKOV-3 ovarian cancer cells; test: MTT cytotoxicity assay, SKOV-3; conditions: SK-OV3; MTT; read-out: IC50, viability of ovarian cancer cell line
[5] = test system: OVCAR-8 ovarian cancer cells; test: MTT cytotoxicity assay, OVCAR-8; conditions: OVCAR8, read-out: IC50, viability of ovarian cancer cell line
Method: as §1, §2

OVCAR-8 cells = test: Cell-cycle analysis (FACS), OVCAR-8; conditions: cisplatin 5 μM
Method: (§3) For cell-cycle analysis, cells were washed with PBS and fixed overnight in ice-cold 70% ethanol and stored at 4° C. Cells were then centrifuged and resuspended in 100 U RNAse (Sigma-Aldrich), and incubated at 37° C. for 20 min. Propidiumidodide solution (Invitrogen, 500 μL, 50 μg/mL in DPBS) was added to each tube and incubated in the dark at 4° C. overnight. Flow cytometry analysis was performed with CellQuestPro and data analysis was completed with ModFit LT. All data is in triplicate and presented as a percent mean±SD.

[6] = test system: PEO1-Missense (PEO-1m) ovarian cancer cell line; test: MTT cytotoxicity assay, PEO1-Missense; conditions: PEO1-Missense; MTT; read-out: IC50, viability of ovarian cancer cell line
Method: as §1, §2

[7] = test system: OVCAR-8 PP2Ac shRNA-expressing cells; test: Cell viability (MTT) assay, OVCAR-8 PP2Ac shRNA; conditions: OVCAR-8 PP2Ac shRNA
Method: Cell survival was measured by the 3-(4,5-dimethylthiazol-2-yl)-2,5-diphenyltetrazolium bromide (MTT, Invitrogen) assay. Cells were seeded at a density of 5,000 cells per well in 96-well plates and incubated at 37° C. in humidified 5% CO2 for 24 hours. The 50% inhibitory concentration (IC50) values were defined as the drug concentrations required to reduce cellular proliferation to 50% of the untreated control well. […] All MTT assays were carried out according to the manufacturer's instructions (Molecular Probes, Eugen, Oreg.). Absorbance values were determined at […] on a Spectra Max 250 spectrophotometer (Molecular Devices, Sunnyvale, Calif.). All MTT assays were performed in triplicate. […] Cells were treated with both drugs for 72 h. Cell viability was analyzed via the MTT assay as described above. Experiments were performed in triplicate, and the data are presented as a percent mean±SD.
To stably knockdown expression of PP2AC, a pLKO.1-puro plasmid-based […] shRNA targeting the sequence: […] (clone ID:TRCN0000002483, Sigma-Aldrich) was employed (PP2AC-shRNA). Additionally, a non-targeting shRNA plasmid (NT-shRNA) that targets no known human sequence was utilized as a control. […]

SKOV-3 cells = test: Cell-cycle analysis (FACS), SKOV-3
Method: as §3

`N.N.[Cl][Pt][Cl]` [Cisplatin, cis-[PtCl2(NH3)2], reference compound] gave an IC50 [1] of 8 ± 1.9 µM, an IC50 [2] of 2.3 ± 0.3 µM and an IC50 [3] of 4.3 ± 1.8 µM. The IC50 [4] was 7.6 ± 1.6 µM, the IC50 [5] was 7.2 ± 2.3 µM and the “G1 (%)” value (OVCAR-8 cells; 24 h) was 4.6 ± 2.0%. The “G2/M (%)” value (OVCAR-8 cells; 24 h) was 13.4 ± 0.6%, the “S (%)” value (OVCAR-8 cells; 24 h) was 81.9 ± 1.6% and the “G1 (%)” value (OVCAR-8 cells; 48 h) was 0.85 ± 0.3%. For the same compound, the “G2/M (%)” value (OVCAR-8 cells; 48 h) was 78.5 ± 2.2%, the “S (%)” value (OVCAR-8 cells; 48 h) was 20.7 ± 2.1% and the IC50 [6] was 2.1 ± 0.4 µM. For the same compound, the “sensitivity to cisplatin, PP2Ac knockdown compared to non-targeted control” value [7] was “sensitized”, the “G1 (%)” value (SKOV-3 cells; 24 h, cisplatin 2 μM) was 23.0 ± 0.2% and the “G2/M (%)” value (SKOV-3 cells; 24 h, cisplatin 2 μM) was 8.4 ± 0.3%. The “S (%)” value (SKOV-3 cells; 24 h, cisplatin 2 μM) was 68.6 ± 0.1%, the “G1 (%)” value (SKOV-3 cells; 24 h, cisplatin 5 μM) was 11.6 ± 0.5% and the “G2/M (%)” value (SKOV-3 cells; 24 h, cisplatin 5 μM) was 13.5 ± 0.7%. For the same compound, the “S (%)” value (SKOV-3 cells; 24 h, cisplatin 5 μM) was 75.2 ± 1.0%, the “G1 (%)” value (SKOV-3 cells; 24 h, cisplatin 18 μM) was 49.8 ± 2.3% and the “G2/M (%)” value (SKOV-3 cells; 24 h, cisplatin 18 μM) was 16.6 ± 1.3%. The “S (%)” value (SKOV-3 cells; 24 h, cisplatin 18 μM) was 33.6 ± 1.8%, the “S (%)” value (SKOV-3 cells; 24 h, cisplatin 18 μM, listed as cisplatin) was 33±2% and the “G1 (%)” value (SKOV-3 cells; 24 h, cisplatin 20 μM) was 67.7 ± 1.2%. For the same compound, the “G2/M (%)” value (SKOV-3 cells; 24 h, cisplatin 20 μM) was 16.3 ± 0.9%, the “S (%)” value (SKOV-3 cells; 24 h, cisplatin 20 μM) was 16.0 ± 1.2% and the “G1 (%)” value (SKOV-3 cells; 48 h, cisplatin 18 μM) was 40.4 ± 0.8%. The “G2/M (%)” value (SKOV-3 cells; 48 h, cisplatin 18 μM) was 21.2 ± 1.0% and the “S (%)” value (SKOV-3 cells; 48 h, cisplatin 18 μM) was 38.4 ± 0.5%.
